Source: patent US7785879B1, “Pregnane X receptor compositions, crystals and uses thereof” (Schering Corporation, priority 2005, dated 2010)

Experiments:
[1] = molecular target: T1, PXR (PXR-LBD-L10-SRC) (Homo sapiens, UniProt O75469); test: Temperature-dependent circular dichroism, stabilization of PXR-LBD-L10-SRC; details: human, pH 7.9
T1 sequence (O75469 with tags, fused parts or gaps): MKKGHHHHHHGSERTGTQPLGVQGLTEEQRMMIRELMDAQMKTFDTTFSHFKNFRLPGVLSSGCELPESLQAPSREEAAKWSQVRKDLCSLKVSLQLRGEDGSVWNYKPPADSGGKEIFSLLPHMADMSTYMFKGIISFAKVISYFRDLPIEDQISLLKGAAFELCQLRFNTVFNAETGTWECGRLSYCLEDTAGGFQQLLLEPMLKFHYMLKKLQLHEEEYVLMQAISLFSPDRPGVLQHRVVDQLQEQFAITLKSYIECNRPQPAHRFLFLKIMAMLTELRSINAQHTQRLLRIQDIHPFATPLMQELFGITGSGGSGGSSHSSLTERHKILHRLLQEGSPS
Procedure: (§1) The CD is a function of wavelength.
(§2) PXR-LBD-L10-SRC was expressed and purified essentially as set forth above. […] Stabilization of PXR-LBD-L10-SRC in the presence of various substances was measured by temperature-dependent circular dichroism. PXR-LBD-L10-SRC was assayed under the following conditions:
(§3) Buffer: 25 mM Hepes, pH 7.9, 150 mM NaCl, 5% glycerol, 10 mM BME,
(§4) heating ramp at 2° C./min
(§5) temperature range: 30-80° C.

[2] = molecular target: T2, PXR-LBD-L10-SRC (Homo sapiens, UniProt O75469); test: as above; details: 25 uM compound
T2 sequence (O75469 with tags, fused parts or gaps): T1 sequence (O75469 with tags, fused parts or gaps)
Procedure: as §1, §2, §3, §4, §5

[3] = molecular target: T3, PXR (Homo sapiens, UniProt O75469); details: Table 2; read-out: reported Kd; cited from earlier work
T3 sequence (O75469 1-434): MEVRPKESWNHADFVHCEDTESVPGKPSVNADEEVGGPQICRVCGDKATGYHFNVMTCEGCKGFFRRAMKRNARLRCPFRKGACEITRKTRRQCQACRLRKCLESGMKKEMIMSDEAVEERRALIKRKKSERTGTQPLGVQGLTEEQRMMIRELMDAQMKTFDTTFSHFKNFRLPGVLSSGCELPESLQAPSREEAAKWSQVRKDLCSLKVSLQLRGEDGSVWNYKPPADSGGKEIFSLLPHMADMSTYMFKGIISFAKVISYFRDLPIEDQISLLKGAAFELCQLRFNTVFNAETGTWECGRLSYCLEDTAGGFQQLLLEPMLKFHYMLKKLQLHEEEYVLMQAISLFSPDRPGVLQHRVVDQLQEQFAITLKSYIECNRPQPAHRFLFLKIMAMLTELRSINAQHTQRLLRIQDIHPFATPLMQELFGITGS

[4] = molecular target: T4, human PXR-LBD-L10-SRC (SEQ ID NO: 24) (Homo sapiens, UniProt O75469); test: Ligand binding assay (radioligand, filter plate); details: conclusion from the radioligand binding tables
T4 sequence (O75469 with tags, fused parts or gaps): T1 sequence (O75469 with tags, fused parts or gaps)
Procedure: Chemilluminescence can be detected, for example, in a scintillation counter (Packard Top-counter). Specifically, the bound complex can be contacted with scintillant and then analyzed for the occurrence of scintillation.
After one hour of incubation at room temperature, the mixture was transferred to an imobilon multiScreen filter plate (Millipore). The plate was washed five times with PBS and dried under vacuum. The dried plate was added Opti-Fluor Scitillation cocktail before counting in a Parkard Top-counter.

| SMILES | ΔTm at 25 µM [1] [°C] | Tm ([2]; 2.5 μM protein, 225 nm, apo enzyme Tm 52.9 ± 0.05) [C] | ΔTm ([2]; vs PXR-LBD-L10-SRC apo enzyme) [C] | Kd ([2]; from CD thermal denaturation) [nM] | Kd [3] [nM] | binding activity of PXR [4] |
| --- | --- | --- | --- | --- | --- | --- |
| O=C1C(CC[S+]([O-])c2ccccc2)C(=O)N(c2ccccc2)N1c1ccccc1 (stereo not drawn) [sulfopyrole] | 2.3 | – | – | – | – | – |
| Clc1ccccc1C(c1ccccc1)(c1ccccc1)n1ccnc1 [Clotrimazole] | – | 58.5 | 5.6 | 200 | 300 | significant |
